Reference: patent US10059709B2, “Compounds” (Elanco Tiergesundheit AG, priority 2014, dated 2018)

Assays:
Assay type in all cases: biochemical
GST-JAK1(866-1154) = GST-JAK1(866-1154) (Homo sapiens (Human), UniProt P23458); experiment: Caliper mobility shift kinase assay, JAK1; conditions: IRS-1 peptide 5 μM, ATP 40 μM, 60 minutes at 30° C.
Source text: (§1) Measurement of the Effect on the JAK Enzyme
(§2) All four kinases of the JAK/TYK-kinase family were used as purified recombinant GST-fusion proteins, containing the active kinase domains. GST-JAK1(866-1154), GST-JAK3(811-1124), and GST-TYK2(888-1187) were expressed and purified by affinity chromatography at the EPK biology unit.
(§3) The kinase assays were based on the Caliper mobility shift assay using the LabChip 3000 systems. This technology is similar to capillary electrophoresis and uses charge driven separation of substrate and product in a microfluidic chip.
(§4) All kinase reactions were performed in 384 well microtiter plates in a total reaction volume of
(§5) 18 μI. […] The reactions were started by combining 9 μI of substrate mix (consisting of peptide and ATP) with 9 μI of kinase dilution. The reactions were incubated for 60 minutes at 30° C. and stopped by adding 70 μI of stop buffer (100 mM Hepes, 5% DMSO, 0.1% Coating reagent, 10 mM EDTA, 0.015% Brij 35).
(§6) Fluorescently labeled synthetic peptides were used as substrates in all reactions. […] Specific assay conditions are described in Table 4:
(§7) The terminated reactions were transferred to the Caliper LabChip 3000 reader and the turnover of each reaction was measured by determining the substrate/product ratio.
(§8) Preparation of Compound Dilutions
(§9) Test compounds were dissolved in DMSO (10 mM) and transferred into 1.4 mL flatbottom or V-shaped Matrix tubes carrying a unique 2D matrix chip by individual compound hubs. The numbers of these chips were distinctively linked to the individual compound identification numbers. The stock solutions were stored at −20° C. if not used immediately. For the test procedure the vials were defrosted and identified by a scanner whereby a working sheet was generated that guided the subsequent working steps. Compound dilutions were made in 96 well plates. This format enabled the assay of maximally 40 individual test compounds at 8 concentrations (single points) including 4 reference compounds. The dilution protocol included the production of pre-dilution plates, master plates and assay plates:
(§10) Pre-dilution plates: 96 polypropylene well plates were used as pre-dilution plates. A total of 4 pre-dilution plates were prepared including 10 test compounds each on the plate positions A1-A10, one standard compound at A11 and one DMSO control at A12. All dilution steps were done on a HamiltonSTAR robot.
(§11) Master plates: 100 μI of individual compound dilutions including standard compound and controls of the 4 “pre-dilution plates” were transferred into a 384 “master plate” including the following concentrations 1′820, 564, 182, 54.6, 18.2, 5.46, 1.82 and 0.546 μM, respectively in 90% of DMSO.
(§12) Assay plates: Identical assay plates were then prepared by pipetting 100 nL of compound dilutions of the master plates into 384-well “assay plates”. […] The preparation of the master plates were handled by the Matrix PlateMate Plus robot and replication of assay plates by the HummingBird robot.

GST-TYK2(888-1187) = GST-TYK2(888-1187) (Homo sapiens (Human), UniProt P29597); experiment: Caliper mobility shift kinase assay, TYK2; conditions: IRS-1 peptide 5 μM, ATP 30 μM, 60 minutes at 30° C.
Source text: as §1, §2, §3, §4, §5, §6, §7, §8, §9, §10, §11, §12

GST-JAK3(811-1124) = GST-JAK3(811-1124) (Homo sapiens (Human), UniProt P52333); experiment: Caliper mobility shift kinase assay, JAK3; conditions: JAK3tide 2 μM, ATP 80 or 18 μM, 60 minutes at 30° C.
Source text: as §1, §2, §3, §4
18 μI. The assay plates were prepared with 0.1 μI per well of test compound in the appropriate test concentration, as described under the section “preparation of compound dilutions”. The reactions were started by combining 9 μI of substrate mix (consisting of peptide and ATP) with 9 μI of kinase dilution. The reactions were incubated for 60 minutes at 30° C. and stopped by adding 70 μI of stop buffer (100 mM Hepes, 5% DMSO, 0.1% Coating reagent, 10 mM EDTA, 0.015% Brij 35).
Fluorescently labeled synthetic peptides were used as substrates in all reactions. A peptide derived from the sequence of IRS-1 (IRS-1 peptide, FITC-Ahx-[…]-NH2) was used for JAK1 and TYK2 and a peptide named JAK3tide (FITC-[…]-NH2) for JAK3. Specific assay conditions are described in Table 4:
as §7, §8, §9, §10, §11
Assay plates: Identical assay plates were then prepared by pipetting 100 nL of compound dilutions of the master plates into 384-well “assay plates”. In the following the compounds were mixed with 9 μI of assays components plus 9 μI enzyme corresponding to a 1:181 dilution steps enabling the final concentration of 10, 3.0, 1.0, 0.3, 0.1, 0.03, 0.01 and 0.003 μM, respectively. The preparation of the master plates were handled by the Matrix PlateMate Plus robot and replication of assay plates by the HummingBird robot.

Sequence of GST-JAK1(866-1154) (P23458 866-1154): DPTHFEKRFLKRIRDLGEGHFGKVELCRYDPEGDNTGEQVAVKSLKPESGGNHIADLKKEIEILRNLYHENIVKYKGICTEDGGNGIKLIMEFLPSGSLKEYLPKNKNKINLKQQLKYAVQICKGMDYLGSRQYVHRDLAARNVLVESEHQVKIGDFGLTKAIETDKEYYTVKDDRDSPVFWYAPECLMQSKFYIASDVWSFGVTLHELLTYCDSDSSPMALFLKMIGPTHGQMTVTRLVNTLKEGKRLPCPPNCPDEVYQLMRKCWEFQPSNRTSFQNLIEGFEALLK
Sequence of GST-TYK2(888-1187) (P29597 888-1187): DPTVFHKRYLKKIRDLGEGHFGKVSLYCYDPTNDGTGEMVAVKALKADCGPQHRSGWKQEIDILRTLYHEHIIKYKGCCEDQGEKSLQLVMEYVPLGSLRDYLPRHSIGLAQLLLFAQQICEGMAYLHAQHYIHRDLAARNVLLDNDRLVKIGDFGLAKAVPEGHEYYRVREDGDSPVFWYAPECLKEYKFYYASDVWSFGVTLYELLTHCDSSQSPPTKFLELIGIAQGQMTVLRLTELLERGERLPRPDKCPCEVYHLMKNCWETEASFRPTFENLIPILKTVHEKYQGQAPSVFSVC
Sequence of GST-JAK3(811-1124) (P52333 811-1124): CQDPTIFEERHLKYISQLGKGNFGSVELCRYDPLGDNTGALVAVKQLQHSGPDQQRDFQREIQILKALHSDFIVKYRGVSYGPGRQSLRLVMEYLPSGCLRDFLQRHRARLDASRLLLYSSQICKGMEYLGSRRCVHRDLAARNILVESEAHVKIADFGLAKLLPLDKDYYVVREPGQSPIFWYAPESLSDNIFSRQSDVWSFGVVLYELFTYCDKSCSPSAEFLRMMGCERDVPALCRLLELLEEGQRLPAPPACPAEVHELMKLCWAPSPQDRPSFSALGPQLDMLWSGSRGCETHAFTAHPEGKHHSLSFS

IC50 (GST-JAK1(866-1154))	IC50 (GST-TYK2(888-1187))	IC50 (GST-JAK3(811-1124))	SMILES
		7.93 µM	CNS(=O)(=O)C[C@H]1CC[C@H](N(C)c2ncnc3[nH]c(C)nc23)CC1 [compound 1]
> 10 µM	> 10 µM	> 10 µM	CNS(=O)(=O)C[C@H]1CC[C@H](N(C)c2ncnc3[nH]c(-c4ccccc4)nc23)CC1 [compound 4]
0.582 µM	4.59 µM	1.89 µM	CNS(=O)(=O)C[C@H]1CC[C@H](N(C)c2ncnc3[nH]cnc23)CC1 [compound 2, N-methyl-1-[trans-4-[methyl(9H-purin-6-yl)amino]cyclohexyl]methanesulfonamide]
> 10 µM	> 10 µM	> 10 µM	CNS(=O)(=O)C[C@H]1CC[C@H](N(C)c2ncnc3[nH]c(Cc4ccccc4)nc23)CC1 [compound 5]
0.55 µM	3.2 µM	> 10 µM	CNS(=O)(=O)C[C@H]1CC[C@H](N(C)c2ncnn3cccc23)CC1 [compound 28]
> 10 µM	> 10 µM	> 10 µM	CNS(=O)(=O)C[C@H]1CC[C@H](N(C)c2ncnc3sccc23)CC1 [compound 9]
> 10 µM	> 10 µM	> 10 µM	CNS(=O)(=O)C[C@H]1CC[C@H](N(C)c2ccnc(N)n2)CC1 [compound 16]
> 10 µM	> 10 µM	> 10 µM	CNS(=O)(=O)C[C@H]1CC[C@H](N(C)c2nc(N)ncc2Br)CC1 [compound 7]
> 10 µM	> 10 µM	> 10 µM	CNS(=O)(=O)C[C@H]1CC[C@H](N(C)c2ncnc3[nH]ncc23)CC1 [compound 3]
0.034 µM	0.84 µM	3 µM	CNS(=O)(=O)C[C@H]1CC[C@H](N(C)c2c(C#N)cnc3[nH]ccc23)CC1 [compound 26, 1-[trans-4-[(5-cyano-1H-pyrrolo[2,3-b]pyridin-4-yl)-methyl-amino]cyclohexyl]-N-methyl-methanesulfonamide]
> 10 µM	> 10 µM	> 10 µM	CNS(=O)(=O)C[C@H]1CC[C@H](N(C)c2cc(Cl)nc(N)n2)CC1 [compound 10]

The next lines start with the compound.

SMILES	IC50 (GST-JAK1(866-1154))	IC50 (GST-TYK2(888-1187))	IC50 (GST-JAK3(811-1124))
CNS(=O)(=O)C[C@H]1CC[C@H](N(C)c2c(C#N)cnc3sccc23)CC1 [compound 17]	> 10 µM	> 10 µM	> 10 µM
CNS(=O)(=O)C[C@H]1CC[C@H](Nc2ccnc(N)n2)CC1 [compound 11]	> 10 µM	> 10 µM	> 10 µM
CNS(=O)(=O)C[C@H]1CC[C@H](N(C)c2c([N+](=O)[O-])cnc3[nH]ccc23)CC1 [compound 18]		0.39 µM	1.2 µM
CNS(=O)(=O)C[C@H]1CC[C@H](Oc2c([N+](=O)[O-])cnc3[nH]ccc23)CC1 [compound 25, N-methyl-1-[trans-4-[(5-nitro-1H-pyrrolo[2,3-b]pyridin-4-yl)oxy]cyclohexyl]methanesulfonamide]	0.071 µM		3.6 µM
CNS(=O)(=O)C[C@H]1CC[C@H](Oc2ncnn3cccc23)CC1 [compound 6]	> 10 µM	> 10 µM	> 10 µM
CNS(=O)(=O)C[C@H]1CC[C@H](N(C)c2c(C#N)cnn3cccc23)CC1 [compound 24]	0.93 µM	8.5 µM	> 10 µM
CNS(=O)(=O)C[C@H]1CC[C@H](Nc2ncnn3cccc23)CC1 [compound 15]	> 10 µM	> 10 µM	> 10 µM
CNS(=O)(=O)C[C@H]1CC[C@H](Nc2c(C#N)cnn3cccc23)CC1 [compound 27]	1.8 µM		> 10 µM
CNS(=O)(=O)C[C@H]1CC[C@H](Nc2nc(N)ncc2C)CC1 [compound 12]	> 10 µM	> 10 µM	> 10 µM
CNS(=O)(=O)C[C@H]1CC[C@H](n2cnc3cnc4[nH]ccc4c32)CC1 [compound 22, 1-[trans-4-(imidazo[4,5-d]pyrrolo[2,3-b]pyridin-1(6H)-yl)cyclohexyl]-N-methylmethanesulfonamide]	0.01 µM	0.13 µM	0.26 µM
CNS(=O)(=O)C[C@H]1CC[C@H](Oc2ncnc3sccc23)CC1 [compound 19]	> 10 µM	> 10 µM	> 10 µM
CNS(=O)(=O)C[C@H]1CC[C@H](Nc2nc(N)ncc2-c2ccccc2)CC1 [compound 23]	> 10 µM	> 10 µM	> 10 µM
CNS(=O)(=O)C[C@H]1CC[C@H](Oc2c(C#N)cnc3sccc23)CC1 [compound 20]	> 10 µM	> 10 µM	> 10 µM
CNS(=O)(=O)C[C@H]1CC[C@H](Nc2ncnc3sccc23)CC1 [compound 8]	> 10 µM	> 10 µM	> 10 µM
CNS(=O)(=O)C[C@H]1CC[C@H](N(C)c2nc(N)ncc2-c2ccccc2)CC1 [compound 21]	> 10 µM	> 10 µM	> 10 µM
CNS(=O)(=O)C[C@H]1CC[C@H](Nc2nc(N)ncc2Br)CC1 [compound 13]		6 µM	> 10 µM
CNS(=O)(=O)C[C@H]1CC[C@H](Nc2c(C#N)cnc3sccc23)CC1 [compound 14]	> 10 µM	> 10 µM	> 10 µM
